# Data from US20120101098A1, “3,28-DISUBSTITUTED BETULINIC ACID DERIVATIVES AS ANTI-HIV AGENTS” (priority 2009, published 2012).
# Where two headings read alike, the source gives them in different places.
# Assays:
# [1] = system: mock-infected MT-2 cell; experiment: Cytotoxicity in mock-infected MT-2 cells (XTT); conditions: concentration that inhibits mock-infected MT-2 cell growth by 50%
# Method: (§1) HIV-1IIIB Replication Inhibition Assay in MT-2 Lymphocytes. The evaluation of HIV-1 inhibition was carried out as follows. […] Control wells containing virus and cells only (no drug) and cells only (no virus or drug) were also prepared. A second identical set of samples were added to cells under the same conditions without virus (mock infection) for cytotoxicity determinations (CC50 defined below). […] On day 4 PI, the assay was terminated and culture supernatants were harvested for p24 antigen ELISA analysis. The compound cytotoxicity was determined by XTT using the mock-infected sample wells.
# [2] = system: HIV-1IIIB; experiment: HIV-1IIIB replication inhibition assay in MT-2 lymphocytes (p24 antigen ELISA); format: cell-based; conditions: HIV-1IIIB infected MT-2 cell lines, concentration that inhibits HIV-1IIIB replication by 50%, NS: no suppression at concentrations below the CC50
# Method: as §1
# [3] = system: HIV-1NL4-3; experiment: HIV-1NL4-3 replication inhibition assay in MT-4 lymphocytes (p24 antigen ELISA); format: cell-based
# From the text: HIV-1NL4-3 Replication Inhibition Assay in MT-4 Lymphocytes. A previously described HIV-1 infectivity assay was used.^28,33 A 96-well microtiter plate was used to set up the HIV-1NL4-3 replication screening assay. NL4-3 variants at a multiplicity of infection (MOI) of 0.01 were used to infect MT4 cells. Culture supernatants were collected on day 4 post-infection for the p24 antigen capture using an ELISA kit from ZeptoMetrix Corporation (Buffalo, N.Y.).
# [4] = system: mock-infected MT-4 cell; experiment: Cytotoxicity in mock-infected MT-4 cells; format: cell-based
# [5] = system: mock-infected MT-2 cell
# Method: as §1
# [6] = HIV-1NL4-3 infected MT-4 cell lines, concentration that inhibits HIV-1NL4-3 replication by 50%
Compound,CC50 [1] [µM],EC50 [2] [µM],CC50 [5] [µM],also measured
"C=C(C)[C@@H]1CC[C@]2(C(=O)N3CCC(CCCC(=O)O)CC3)CC[C@]3(C)[C@H](CC[C@@H]4[C@@]5(C)CC[C@H](OC(=O)CC(C)(C)C(=O)O)C(C)(C)[C@@H]5CC[C@]43C)[C@@H]12 [Compound 39, N-[3β-O-(3′,3′-Dimethylsuccinyl)-lup-20(29)-en-28-oyl]-4-piperidine butyric acid]",20.8,0.015,,
"C=C(C)[C@@H]1CC[C@]2(C(=O)N3CCC(CCCC(=O)O)CC3)CC[C@]3(C)[C@H](CC[C@@H]4[C@@]5(C)CC[C@H](OC(=O)CCC(C)(C)C(=O)O)C(C)(C)[C@@H]5CC[C@]43C)[C@@H]12 [Compound 40, N-[3β-O-(4′,4′-Dimethylglutaryl)-lup-20(29)-en-28-oyl]-4-piperidine butyric acid]",33.2,0.23,,
"C=C(COCCc1ccccc1)[C@@H]1CC[C@]2(C(=O)N[C@@H](CC(C)C)C(=O)O)CC[C@]3(C)[C@H](CC[C@@H]4[C@@]5(C)CC[C@H](O)C(C)(C)[C@@H]5CC[C@]43C)[C@@H]12 [Compound 13, N-[3β-Hydroxy-30-phenethoxy-lup-20(29)-en-28-oyl]-leucine]",21.7,> 16.7,,
C=C(C)[C@@H]1CC[C@]2(C(=O)N3CCC(CCCC(=O)NC)CC3)CC[C@]3(C)[C@H](CC[C@@H]4[C@@]5(C)CC[C@H](OC(=O)CC(C)(C)C(=O)O)C(C)(C)[C@@H]5CC[C@]43C)[C@@H]12 [Compound 45],33.3,0.067,,"EC50 [3, 6]: 0.24 µM; CC50 [4]: > 10 µM"
"C=C(COCCCC)[C@@H]1CC[C@]2(C(=O)N[C@@H](CC(C)C)C(=O)O)CC[C@]3(C)[C@H](CC[C@@H]4[C@@]5(C)CC[C@H](O)C(C)(C)[C@@H]5CC[C@]43C)[C@@H]12 [Compound 12, N-[3β-Hydroxy-30-butoxy-lup-20(29)-en-28-oyl]-leucine]",24.9,> 16.7,,
"C=C(C)[C@@H]1CC[C@]2(C(=O)N3CCC(CCCC(=O)N4CCOCC4)CC3)CC[C@]3(C)[C@H](CC[C@@H]4[C@@]5(C)CC[C@H](OC(=O)CC(C)(C)C(=O)O)C(C)(C)[C@@H]5CC[C@]43C)[C@@H]12 [Compound 46, N′-[N-[3β-O-(3′,3′-Dimethylsuccinyl)-lup-20(29)-en-28-oyl]-4-piperidine-butanoyl]-morpholine]",19.2,0.011,,"EC50 [3, 6]: 0.07 µM; CC50 [4]: 8.8 µM"
"C=C(C)[C@@H]1CC[C@]2(C(=O)NCCCCCCCNC(C)=O)CC[C@]3(C)[C@H](CC[C@@H]4[C@@]5(C)CC[C@H](O)C(C)(C)[C@@H]5CC[C@]43C)[C@@H]12 [Compound 4, A43-D, reference compound]",,,,"EC50 [3, 6]: 0.092 µM; EC50 ([3]; value of prior best entry inhibitor 4 as given in text, unit inferred): 0.1 µM; CC50 [4]: > 10 µM"
"Cc1cn([C@H]2C[C@H](N=[N+]=[N-])[C@@H](CO)O2)c(=O)[nH]c1=O [AZT, reference compound]",,,1870,
"C=C(C)[C@@H]1CC[C@]2(C(=O)NCCCCCCCC(=O)N[C@@H](CC(C)C)[C@H](O)CC(=O)O)CC[C@]3(C)[C@H](CC[C@@H]4[C@@]5(C)CC[C@H](O)C(C)(C)[C@@H]5CC[C@]43C)[C@@H]12 [Compound 3b, IC9564, reference compound]",,,,"EC50 [3, 6]: 0.089 µM; CC50 [4]: > 10 µM"
"C=C(C)[C@@H]1CC[C@]2(C(=O)N3CCC(CCCC(=O)NCCCN4CCOCC4)CC3)CC[C@]3(C)[C@H](CC[C@@H]4[C@@]5(C)CC[C@H](OC(=O)CC(C)(C)C(=O)O)C(C)(C)[C@@H]5CC[C@]43C)[C@@H]12 [Compound 48, N′-[N-[3β-O-(3′,3′-Dimethylsuccinyl)-lup-20(29)-en-28-oyl]-4-piperidine-butanoyl]-3-aminopropylmorpholine]",18.5,0.006,,"EC50 [3, 6]: 0.031 µM; CC50 [4]: 8.6 µM"
"C=C(COCC)[C@@H]1CC[C@]2(C(=O)N[C@@H](CC(C)C)C(=O)O)CC[C@]3(C)[C@H](CC[C@@H]4[C@@]5(C)CC[C@H](O)C(C)(C)[C@@H]5CC[C@]43C)[C@@H]12 [Compound 10, N-[3β-Hydroxy-30-ethoxy-lup-20(29)-en-28-oyl]-leucine]",40.7,> 16.7,,
"C=C(CBr)[C@@H]1CC[C@]2(C(=O)N[C@@H](CC(C)C)C(=O)O)CC[C@]3(C)[C@H](CC[C@@H]4[C@@]5(C)CC[C@H](O)C(C)(C)[C@@H]5CC[C@]43C)[C@@H]12 [Compound 24, N-[3β-Hydroxy-30-bromo-lup-20(29)-en-28-oyl]-leucine]",26.8,> 16.7,,
"C=C(COCCc1ccc(Br)cc1)[C@@H]1CC[C@]2(C(=O)N[C@@H](CC(C)C)C(=O)O)CC[C@]3(C)[C@H](CC[C@@H]4[C@@]5(C)CC[C@H](O)C(C)(C)[C@@H]5CC[C@]43C)[C@@H]12 [Compound 16, N-[3β-Hydroxy-30-(4′-bromophenethoxy)-lup-20(29)-en-28-oyl]-leucine]",,> 16.7,20.8,
"C=C(C)[C@@H]1CC[C@]2(C(=O)N[C@@H](CC(C)C)C(=O)O)CC[C@]3(C)[C@H](CC[C@@H]4[C@@]5(C)CC[C@H](NC(=O)CC(C)(C)C(=O)O)C(C)(C)[C@@H]5CC[C@]43C)[C@@H]12 [Compound 36, N′-[3β-(3′,3′-Dimethylsuccinyl)-lup-20(29)-en-28-oyl]-leucine]",35.9,,,"melting point: 248 to 250 °C; EC50 ([2]; Human immunodeficiency virus 1, MT2): 13.2 µM"
"C=C(CBr)[C@@H]1CC[C@]2(C(=O)NCCCCCCCC(=O)O)CC[C@]3(C)[C@H](CC[C@@H]4[C@@]5(C)CC[C@H](O)C(C)(C)[C@@H]5CC[C@]43C)[C@@H]12 [Compound 25, N-[3β-Hydroxy-30-bromo-lup-20(29)-en-28-oyl]-8-aminooctanoic acid]",,2.3,36.9,
"C=C(CO)[C@@H]1CC[C@]2(C(=O)NCCCCCCCC(=O)O)CC[C@]3(C)[C@H](CC[C@@H]4[C@@]5(C)CC[C@H](O)C(C)(C)[C@@H]5CC[C@]43C)[C@@H]12 [Compound 29, N-[3β,30-Dihydroxy-lup-20(29)-en-28-oyl]-8-aminooctanoic acid]",,14.8,40.7,
"C=C(COCCc1ccc(OC)cc1)[C@@H]1CC[C@]2(C(=O)N[C@@H](CC(C)C)C(=O)O)CC[C@]3(C)[C@H](CC[C@@H]4[C@@]5(C)CC[C@H](O)C(C)(C)[C@@H]5CC[C@]43C)[C@@H]12 [Compound 14, N-[3β-Hydroxy-30-(4′-methoxyphenethoxy)-lup-20(29)-en-28-oyl]-leucine]",,> 16.7,16.7,
"C=C(COCCN1CCOCC1)[C@@H]1CC[C@]2(C(=O)N[C@@H](CC(C)C)C(=O)O)CC[C@]3(C)[C@H](CC[C@@H]4[C@@]5(C)CC[C@H](O)C(C)(C)[C@@H]5CC[C@]43C)[C@@H]12 [Compound 19, N-[3β-Hydroxy-30-(2′-morpholinoethoxy)-lup-20(29)-en-28-oyl]-leucine]",,26.6,35.8,
"C=C(COCCc1ccc(F)cc1)[C@@H]1CC[C@]2(C(=O)N[C@@H](CC(C)C)C(=O)O)CC[C@]3(C)[C@H](CC[C@@H]4[C@@]5(C)CC[C@H](O)C(C)(C)[C@@H]5CC[C@]43C)[C@H]12 [Compound 15, N-[3β-Hydroxy-30-(4% fluorophenethoxy)-lup-20(29)-en-28-oyl]-leucine]",,> 16.7,24.4,
"C=C(COCCC)[C@@H]1CC[C@]2(C(=O)N[C@@H](CC(C)C)C(=O)O)CC[C@]3(C)[C@H](CC[C@@H]4[C@@]5(C)CC[C@H](O)C(C)(C)[C@@H]5CC[C@]43C)[C@@H]12 [Compound 11, N-[3β-Hydroxy-30-propoxy-lup-20(29)-en-28-oyl]-leucine]",25.3,> 16.7,,
"C=C(C)[C@@H]1CC[C@]2(C(=O)N3CCC(CCCC(=O)NCCN4CCOCC4)CC3)CC[C@]3(C)[C@H](CC[C@@H]4[C@@]5(C)CC[C@H](OC(=O)CC(C)(C)C(=O)O)C(C)(C)[C@@H]5CC[C@]43C)[C@@H]12 [Compound 47, N′-[N-[3β-O-(3′,3′-Dimethylsuccinyl)-lup-20(29)-en-28-oyl]-4-piperidine-butanoyl]-2-aminoethylmorpholine]",17.3,0.007,,"EC50 [3, 6]: 0.035 µM; CC50 [4]: 8.5 µM"
"C=C(CN1CCOCC1)C1CCC2(C(=O)NC(CC(C)C)C(=O)O)CCC3(C)C(CCC4C5(C)CCC(O)C(C)(C)C5CCC43C)C12 (stereo not drawn) [Compound 18, N-[3β-Hydroxy-30-morpholino-lup-20(29)-en-28-oyl]-leucine]",27.5,> 16.7,,
"C=C(COCCc1ccc(Cl)cc1)[C@@H]1CC[C@]2(C(=O)N[C@@H](CC(C)C)C(=O)O)CC[C@]3(C)[C@H](CC[C@@H]4[C@@]5(C)CC[C@H](O)C(C)(C)[C@@H]5CC[C@]43C)[C@@H]12 [Compound 17, N-[3β-Hydroxy-30-(4′-chlorophenethoxy)-lup-20(29)-en-28-oyl]-leucine]",,27.8,34.6,
"C=C(CO)[C@@H]1CC[C@]2(C(=O)N[C@@H](CC(C)C)C(=O)O)CC[C@]3(C)[C@H](CC[C@@H]4[C@@]5(C)CC[C@H](O)C(C)(C)[C@@H]5CC[C@]43C)[C@@H]12 [Compound 28, N-[3β,30-Dihydroxy-lup-20(29)-en-28-oyl]-leucine]",30.7,> 16.7,,
"C=C(C)[C@@H]1CC[C@]2(C(=O)N[C@@H](CC(C)C)C(=O)O)CC[C@]3(C)[C@H](CC[C@@H]4[C@@]5(C)CC[C@H](O)C(C)(C)[C@@H]5CC[C@]43C)[C@@H]12 [Compound 22, N-[3β-Hydroxy-lup-20(29)-en-28-oyl]-leucine]",,,29.8,
